Test results taken from the supplement of paper PMC10307832.

Legend:
Assay in all cases: relative viability (nuclei count vs DMSO), 5 days (fraction); higher = more cells survive
[1] = compound: COC1=C(C=C(C=C1)C2=CC3=NC=CN3C(=N2)NC4=C(C=CC=N4)C(=O)N)OC [BAY61-3606] + CS(=O)(=O)CCNCc1ccc(-c2ccc3ncnc(Nc4ccc(OCc5cccc(F)c5)c(Cl)c4)c3c2)o1 [Lapatinib] (partner 2 µM)
Procedure, shortened: (§1)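 For relative viability, nuclei counts in treated wells were divided by those in vehicle wells. Lung cancer cell lines had been pin-tool dosed in 1536-well plates the day after seeding and cultured for 5 days, then fixed and stained in one step (final 0.05% Triton X-100, 1% formaldehyde, 1 ug/ml Hoechst) and imaged at 4×. Doses were one drug alone or a fixed anchor-drug dose plus five library-drug doses (not always all listed) in √10 steps, and values are duplicate-plate medians.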

[2] = compound: COC1=C(C=C(C=C1)C2=CC3=NC=CN3C(=N2)NC4=C(C=CC=N4)C(=O)N)OC [BAY61-3606] + O=C(c1cc(Cc2n[nH]c(=O)c3ccccc23)ccc1F)N1CCN(C(=O)C2CC2)CC1 [Olaparib] (partner 8 µM)
Procedure, shortened: as §1

[3] = compound: COc1cccc2c1C(=O)c1c(O)c3c(c(O)c1C2=O)C[C@@](O)(C(=O)CO)C[C@@H]3O[C@H]1C[C@H](N)[C@H](O)[C@H](C)O1 [Doxorubicin] + Nc1ncn([C@H]2C[C@H](O)[C@@H](CO)O2)c(=O)n1 [Decitabine] (partner 2 µM)
Procedure, shortened: as §1

[4] = compound: COc1cccc2c1C(=O)c1c(O)c3c(c(O)c1C2=O)C[C@@](O)(C(=O)CO)C[C@@H]3O[C@H]1C[C@H](N)[C@H](O)[C@H](C)O1 [Doxorubicin] + Cc1cc(Nc2cc(N3CCN(C)CC3)nc(Sc3ccc(NC(=O)C4CC4)cc3)n2)n[nH]1 [Tozasertib] (partner 0.1 µM)
Procedure, shortened: as §1

Cell Line	relative viability ([1]; first compound 0.02 µM)	relative viability ([1]; first compound 0.06325 µM)	relative viability ([1]; first compound 0.2 µM)	relative viability ([1]; first compound 0.6325 µM)	relative viability ([1]; first compound 2 µM)	relative viability ([2]; first compound 0.02 µM)	relative viability ([2]; first compound 0.06325 µM)	relative viability ([2]; first compound 0.2 µM)	relative viability ([2]; first compound 0.6325 µM)	relative viability ([2]; first compound 2 µM)	relative viability ([3]; first compound 0.001 µM)	relative viability ([3]; first compound 0.003162 µM)	relative viability ([3]; first compound 0.01 µM)	relative viability ([3]; first compound 0.03162 µM)	relative viability ([3]; first compound 0.1 µM)	relative viability ([4]; first compound 0.001 µM)	relative viability ([4]; first compound 0.003162 µM)	relative viability ([4]; first compound 0.01 µM)	relative viability ([4]; first compound 0.03162 µM)	relative viability ([4]; first compound 0.1 µM)
NCI-H2126	0.83	0.724	0.745	0.794	0.745	0.92	0.985	0.865	0.909	0.833	0.531	0.608	0.562	0.57	0.587	0.902	0.752	0.774	0.229	0.251
NCI-H2170	0.236	0.272	0.257	0.262	0.279	0.59	0.62	0.571	0.626	0.435	0.498	0.472	0.435	0.396	0.491	0.741	0.711	0.651	0.581	0.701
NCI-H2347	1.05	0.951	0.924	0.945	0.941	0.575	0.629	0.603	0.597	0.559	0.612	0.71	0.646	0.539	0.557	0.62	0.551	0.736	0.53	0.636
NCI-H2405	1.26	0.886	1.05	1.14	1.07	0.941	0.89	0.845	0.907	0.695	0.711	0.759	0.774	0.579	0.497	0.847	0.759	0.74	0.693	0.546
NCI-H3122	1.03	0.934	0.974	1.07	0.957	0.607	0.652	0.676	0.636	0.57	0.391	0.514	0.389	0.384	0.437	0.339	0.375	0.335	0.169	0.141
